This is an account of results in publication PMC3514216, “SRC Homology 2 Domain Binding Sites in Insulin, IGF-1 and FGF receptor mediated signaling networks reveal an extensive potential interactome” (Cell Communication and Signaling : CCS, 2012).

For experiment [1], the target named is T1, CrkL SH2 domain (Homo sapiens, UniProt P46109). Further details: method as in earlier work. Particulars: N.B. = non binding, cited from earlier work.
Experiment [2] has as its target Nck1 SH2 domain (Homo sapiens, UniProt P16333). Set-up: method as in earlier work. The conditions noted are these: N.B. = non binding; cited from earlier work.
The target in experiment [3] is T2, Crk SH2 domain (Homo sapiens, UniProt P46108). Further details: method as in earlier work. Particulars: N.B. = non binding; cited from earlier work.
T2 sequence (P46108 13-118 limits assumed): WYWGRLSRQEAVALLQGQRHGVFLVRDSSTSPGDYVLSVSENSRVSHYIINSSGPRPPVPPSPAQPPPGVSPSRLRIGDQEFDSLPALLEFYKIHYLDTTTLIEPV
Experiment [4] addresses T3, Plcg2_N SH2 domain (Homo sapiens, UniProt P16885). Set-up: method as in earlier work. The conditions noted are these: N.B. = non binding; cited from earlier work.
In experiment [5] the target is Vav1 SH2 domain (Homo sapiens, UniProt P15498). Further details: method as in earlier work. The conditions noted are these: N.B. = non binding; cited from earlier work.
Chain of Vav1 SH2 domain (P15498 671-765 limits assumed): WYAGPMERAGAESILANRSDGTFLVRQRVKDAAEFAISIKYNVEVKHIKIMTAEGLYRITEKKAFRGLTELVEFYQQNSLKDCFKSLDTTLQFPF
Experiment [6] deals with T4, Rasa1_C SH2 domain (Homo sapiens, UniProt P20936).
T4 sequence (P20936 351-441 limits assumed): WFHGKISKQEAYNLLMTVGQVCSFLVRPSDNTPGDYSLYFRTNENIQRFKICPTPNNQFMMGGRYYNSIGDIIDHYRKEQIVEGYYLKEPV
Nature of the experiment: Fluorescence polarization solution binding. Particulars: Rhodamine B-labeled peptide, GST-SH2, Beacon 2000, read-out: Affinity (KD).

Experiment [7] deals with T5, Rasa1_N SH2 domain (Homo sapiens, UniProt P20936). Nature of the experiment: Fluorescence polarization solution binding. The conditions noted are these: Rhodamine B-labeled peptide, GST-SH2, Beacon 2000, read-out: Affinity (KD). In general terms: Fluorescence polarisation rises when a labelled molecule tumbles more slowly, as on binding a larger partner.
T5 sequence (P20936 181-272 limits assumed): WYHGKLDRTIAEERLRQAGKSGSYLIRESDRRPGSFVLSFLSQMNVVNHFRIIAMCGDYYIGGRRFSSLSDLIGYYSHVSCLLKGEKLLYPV
Experiment [8] deals with T6, Ptpn11_N SH2 domain (Homo sapiens, UniProt Q06124).
T6 sequence (Q06124 6-102 limits assumed): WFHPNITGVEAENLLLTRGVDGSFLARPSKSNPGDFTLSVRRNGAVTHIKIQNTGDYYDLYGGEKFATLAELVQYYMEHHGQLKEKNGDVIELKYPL
Nature of the experiment: Fluorescence polarization solution binding. Particulars: Rhodamine B-labeled peptide, GST-SH2, Beacon 2000, read-out: Affinity (KD).

Experiment [9] concerns the target PI3K1_N SH2 domain (Homo sapiens, UniProt P27986). Nature of the experiment: Fluorescence polarization solution binding. Particulars: Rhodamine B-labeled peptide, GST-SH2, Beacon 2000, read-out: Affinity (KD).
The target of experiment [10] is PI3K1_C SH2 domain (Homo sapiens, UniProt P27986). Nature of the experiment: Fluorescence polarization solution binding. The conditions noted are these: Rhodamine B-labeled peptide, GST-SH2, Beacon 2000, read-out: Affinity (KD).
Chain of PI3K1_C SH2 domain (P27986 624-718 limits assumed): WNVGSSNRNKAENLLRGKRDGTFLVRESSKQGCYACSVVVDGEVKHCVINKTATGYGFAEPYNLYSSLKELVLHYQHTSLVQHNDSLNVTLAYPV
For experiment [11], the target named is T3, Plcg2_N SH2 domain. Nature of the experiment: Fluorescence polarization solution binding. Particulars: Rhodamine B-labeled peptide, GST-SH2, Beacon 2000, read-out: Affinity (KD). The text has this: (§1) To verify the binding results obtained from addressable peptide arrays we employed an orthogonal method of determining SH2 interactions with peptide ligands. We measured the dissociation constants of 60 binary SH2-peptide pairs in solution by fluorescence polarization (Table 2, Additional file 2: Figures S3A-C).
(§2) As noted above, this study performs well in terms of reproducing the literature reported interactions between the 50 SH2 domains tested and the 13 proteins represented on the addressable arrays (Table 1). A handful of differences with literature-reported interactions must, by necessity, be reconciled. Our assumption is that a high-throughput (HTP) study such as this one should capture upwards of 85% of known (literature reported) interactions and that results that differ from low throughput studies described in the literature should be subject to further testing to identify the nature of the discrepancy and reveal any weakness in the HTP dataset. […] For instance, FGFR1 Y-766 (SNQEpYLDLSMP) is reported to bind to PLCγ1 in a pTyr dependant manner based on mutational analysis of FGFR1 [55, 56]. […] This may imply that either this is a binding event specific to PLCγ1 (and not PLCγ2), or that the interaction reported at the level of the full-length protein may be more complex, perhaps requiring secondary contact sites that are not available within the context of the short peptide used in the current study. […] We have made an effort to limit false negatives to those of lower affinity, and we are aware of no instance in our dataset of a sub-micromolar affinity interaction being scored as array-negative.
(§3) Peptides were synthesized using FMOC-chemistry onto pre-loaded tenta-gel resins. […] Dissociation constants were measured using the Beacon 2000 (Invitrogen) as previously described.
(§4) Binding Affinities determined by Fluorescence Polarization. […] Fluorescence polarization measurements were read on a Beacon 2000 (Invitrogen). […]

The target in experiment [12] is Plcg2_C SH2 domain (Homo sapiens, UniProt P16885). Nature of the experiment: Fluorescence polarization solution binding. The conditions noted are these: Rhodamine B-labeled peptide, GST-SH2, Beacon 2000, read-out: Affinity (KD).
Chain of Plcg2_C SH2 domain (P16885 646-735 limits assumed): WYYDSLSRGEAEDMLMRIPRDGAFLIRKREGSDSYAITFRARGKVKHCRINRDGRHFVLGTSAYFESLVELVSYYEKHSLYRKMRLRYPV
From the text: as §1, §2, §3, §4

In experiment [13] the target is Shb SH2 domain (Homo sapiens, UniProt Q15464). Nature of the experiment: Fluorescence polarization solution binding. The conditions noted are these: Rhodamine B-labeled peptide, GST-SH2, Beacon 2000, read-out: Affinity (KD).
Chain of Shb SH2 domain (Q15464 410-504 limits assumed): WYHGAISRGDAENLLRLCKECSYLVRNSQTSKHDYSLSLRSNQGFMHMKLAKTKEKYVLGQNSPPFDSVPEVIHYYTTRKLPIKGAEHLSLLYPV
In experiment [14] the target is Gads SH2 domain. Further details: method as in earlier work. Particulars: SH2 protein microarray; N.B. = non binding; read-out: Protein Microarray (Macbeath) – KD; cited from earlier work.
Experiment [15] deals with T2, Crk SH2 domain. Nature of the experiment: SPOT peptide array. It counts as binding. Particulars: spot intensity as factor of array mean; GST-SH2 0.25 μM. In a few lines:
(§5)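 Readout is near-infrared antibody signal: anti-GST primary, labelled secondary, after GST–SH2 fusion protein was applied to cellulose-bound 11-mer phosphopeptides. Spots exceeding threefold the mean of all peptides counted as positive, below the mean as negative, between as indeterminate.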

Experiment [16] concerns Gads SH2 domain. Nature of the experiment: SPOT peptide array. In kind it is binding. Particulars: spot intensity as factor of array mean; GST-SH2 0.25 μM. In a few lines:
as §5

Experiment [17] deals with T7, Src SH2 domain (Homo sapiens, UniProt P12931). Further details: method as in earlier work. The conditions noted are these: SH2 protein microarray; N.B. = non binding; read-out: Protein Microarray (Macbeath) – KD; cited from earlier work.
The target of experiment [18] is Grb7 SH2 domain. Set-up: method as in earlier work. The conditions noted are these: SH2 protein microarray; N.B. = non binding; read-out: Protein Microarray (Macbeath) – KD; cited from earlier work.
The target of experiment [19] is T8, Grb2 SH2 domain (Homo sapiens, UniProt P62993). Nature of the experiment: SPOT peptide array. In kind it is binding. The conditions noted are these: spot intensity as factor of array mean; GST-SH2 0.25 μM. Summed up:
as §5

The target in experiment [20] is T9, Abl2 SH2 domain (Homo sapiens, UniProt P42684).
T9 sequence (P42684 173-263 limits assumed): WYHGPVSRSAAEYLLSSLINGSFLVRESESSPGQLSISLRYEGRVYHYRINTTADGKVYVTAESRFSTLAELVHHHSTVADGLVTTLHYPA
Nature of the experiment: SPOT peptide array. In kind it is binding. Particulars: spot intensity as factor of array mean; GST-SH2 0.25 μM. In a few lines:
as §5

Experiment [21] concerns the target T7, Src SH2 domain. Nature of the experiment: SPOT peptide array. Particulars: spot intensity as factor of array mean; GST-SH2 0.25 μM. In kind it is binding. In a few lines:
as §5

In experiment [22] the test system is Grb7 SH2 domain. Nature of the experiment: SPOT peptide array. It counts as binding. Particulars: spot intensity as factor of array mean; GST-SH2 0.25 μM. Summed up:
as §5

In experiment [23] the target is T8, Grb2 SH2 domain. Further details: method as in earlier work. The conditions noted are these: SH2 protein microarray; N.B. = non binding; read-out: Protein Microarray (Macbeath) – KD; cited from earlier work.
Experiment [24] addresses T9, Abl2 SH2 domain. Further details: method as in earlier work. The conditions noted are these: SH2 protein microarray; N.B. = non binding; read-out: Protein Microarray (Macbeath) – KD; cited from earlier work.
In experiment [25] the target is T10, Abl1 SH2 domain (Homo sapiens, UniProt P00519).
T10 sequence (P00519 127-217 limits assumed): T9 sequence (P42684 173-263 limits assumed) with S9N, L18G, L35R, T53A, A54S, V58L, T61S, A62S, S67N, V84I
Set-up: method as in earlier work. Particulars: SH2 protein microarray; N.B. = non binding; read-out: Protein Microarray (Macbeath) – KD; cited from earlier work.

The target of experiment [26] is Yes SH2 domain. Set-up: method as in earlier work. The conditions noted are these: SH2 protein microarray; N.B. = non binding; read-out: Protein Microarray (Macbeath) – KD; cited from earlier work.
The target in experiment [27] is Itk SH2 domain (Homo sapiens, UniProt Q08881). Nature of the experiment: SPOT peptide array. In kind it is binding. Particulars: spot intensity as factor of array mean; GST-SH2 0.25 μM.
Chain of Itk SH2 domain (Q08881 239-338 limits assumed): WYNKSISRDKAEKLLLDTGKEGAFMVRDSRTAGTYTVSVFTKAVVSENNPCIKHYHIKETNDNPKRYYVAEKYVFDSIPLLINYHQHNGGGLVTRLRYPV
Experiment [28] concerns the target T5, Rasa1_N SH2 domain. Nature of the experiment: SPOT peptide array. In kind it is binding. The conditions noted are these: spot intensity as factor of array mean; GST-SH2 0.25 μM.
Experiment [29] addresses T1, CrkL SH2 domain. Nature of the experiment: SPOT peptide array. In kind it is binding. Particulars: spot intensity as factor of array mean; GST-SH2 0.25 μM. Summed up: as §5
Experiment [30] deals with T10, Abl1 SH2 domain. Nature of the experiment: SPOT peptide array. It counts as binding. The conditions noted are these: spot intensity as factor of array mean; GST-SH2 0.25 μM. Summed up: as §5
Experiment [31] deals with Yes SH2 domain. Nature of the experiment: SPOT peptide array. In kind it is binding. The conditions noted are these: spot intensity as factor of array mean; GST-SH2 0.25 μM. Summed up: as §5

Residue numbers refer to the chain shown, from its start. Residues, ends and D or L forms follow the SMILES beside them.

T1 sequence (P46109 14-102 limits assumed): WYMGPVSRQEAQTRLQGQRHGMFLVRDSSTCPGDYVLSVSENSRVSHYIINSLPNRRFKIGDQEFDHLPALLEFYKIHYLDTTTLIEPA
T8 sequence (P62993 60-152 limits assumed): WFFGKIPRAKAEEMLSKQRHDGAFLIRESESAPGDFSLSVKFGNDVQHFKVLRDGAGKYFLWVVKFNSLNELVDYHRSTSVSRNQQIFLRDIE
T3 sequence (P16885 532-635 limits assumed): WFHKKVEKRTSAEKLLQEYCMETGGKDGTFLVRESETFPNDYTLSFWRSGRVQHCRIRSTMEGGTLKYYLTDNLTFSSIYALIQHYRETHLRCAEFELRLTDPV
Chain of PI3K1_N SH2 domain (P27986 333-428 limits assumed): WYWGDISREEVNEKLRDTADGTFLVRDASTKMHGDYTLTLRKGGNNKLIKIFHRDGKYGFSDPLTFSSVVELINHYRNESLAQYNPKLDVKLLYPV

Take `CSCC[C@H](NC(=O)[C@@H]1CCCN1C(=O)[C@@H](N)[C@@H](C)O)C(=O)N[C@@H](CC(C)C)C(=O)N[C@@H](C)C(=O)NCC(=O)N[C@H](C(=O)N[C@@H](CO)C(=O)N[C@@H](CCC(=O)O)C(=O)N[C@@H](Cc1ccc(OP(=O)(O)O)cc1)C(=O)N[C@@H](CCC(=O)O)C(=O)N[C@@H](CC(C)C)C(=O)N1CCC[C@H]1C(=O)N[C@@H](CCC(=O)O)C(=O)N[C@@H](CC(=O)O)C(=O)N1CCC[C@H]1C(=O)N[C@@H](CCCNC(=N)N)C(=O)N[C@@H](CC(=O)O)C(=O)O)C(C)C` (HELM PEPTIDE1{T.P.M.L.A.G.V.S.E.[O=C([C@H](Cc1ccc(OP(=O)(O)O)cc1)N[*:1])[*:2]].E.L.P.E.D.P.R.D}$$$$V2.0): the “Protein Microarray (Macbeath) – KD” value in experiment [1], in [2], in experiment [3], in [4] and in [5] was “N.B” each time.

The term Kd denotes a measure of binding affinity in units of concentration. `CC(C)C[C@H](NC(=O)[C@H](CCC(=O)O)NC(=O)[C@H](Cc1ccc(OP(=O)(O)O)cc1)NC(=O)CNC(=O)[C@H](CCC(=O)O)NC(=O)[C@H](CCC(=O)O)NC(=O)[C@@H](N)CCCCN)C(=O)N1CCC[C@H]1C(=O)N[C@@H](Cc1ccc(O)cc1)C(=O)N[C@@H](CC(N)=O)C(=O)N1CCC[C@H]1C(=O)O` [KEEGpYELPYNP]: the Kd is 1390 nM in experiment [6]; 410 nM in experiment [7]; > 50000 nM in [8]; 1850 nM in experiment [9]; 13000 nM in [10].

`CC(C)C[C@H](NC(=O)[C@H](CC(=O)O)NC(=O)[C@H](CC(C)C)NC(=O)[C@H](Cc1ccc(OP(=O)(O)O)cc1)NC(=O)[C@H](CCC(=O)O)NC(=O)[C@H](CC(=O)O)NC(=O)[C@@H](NC(=O)[C@@H](N)CO)[C@@H](C)O)C(=O)N[C@@H](CO)C(=O)N[C@@H](C)C(=O)N1CCC[C@H]1C(=O)O` [STDEpYLDLSAP]: the Kd in experiment [11] is > 50000 nM; in experiment [12] it was 7490 nM; in experiment [6], > 17000 nM; in experiment [8], 25000 nM; in experiment [10] it was 2140 nM; in experiment [13], > 50000 nM.

Turning to ARDIHHIDYpYKKTTNGRD, the Kd in experiment [14] is 1010 nM. In addition, the “Peptide array intensity (X mean)” value in experiment [15] and in experiment [16] was <2x X Mean each time.

With EIFTLGGSPpYPGVPVEED, the values for the Kd in experiment [17] and in experiment [18] were 1790 nM and 650 nM, respectively. For the same molecule, the “Peptide array intensity (X mean)” value in [19], in [20], in [21] and in experiment [22] was <2x X Mean in each case.

“QARRPPGLEpYCYNPSHND* (QARRPPGLEYCYNPSHND) [FGFR1 Y583 phosphopeptide; Cys replaced with Ala or Ser on peptide arrays]”: the equilibrium dissociation constant (Kd) in experiment [1] (SH2 protein microarray, read-out: Protein Microarray (Macbeath) – KD) was 1550 nM; in experiment [23], 1620 nM; in [24], 340 nM; in experiment [25], 1800 nM.

In the case of “QARRPPGLEpYCYNPSHND* [FGFR1 Y583 phosphopeptide; Cys replaced with Ala or Ser on peptide arrays]”, the Kd is 1550 nM in experiment [26] and 1000 nM in [18]. Further, the “Peptide array intensity (X mean)” value was <2x X Mean in experiment [27]; <2x X Mean in [28]; <2x X Mean in experiment [19]; <2x X Mean in [20]; <2x X Mean in experiment [29]; >3x X Mean in [30]. Further, the “Peptide array intensity (X mean)” value in experiment [22] is >3x X Mean; in experiment [31], <2x X Mean.
